Values of other authors as cited in US20220218650A1, “COMPOSITION AND METHOD FOR TREATING PAIN” (Zelira Therapeutics Operations Pty Ltd, priority 2018, published 2022).

Settings: treatment group (5 mg THC); control group 74 mg; difference not statistically significant (n=105)

CCCCCc1cc(O)c2c(c1)OC(C)(C)[C@@H]1CCC(C)=C[C@@H]21 [dronabinol]
Median dose of micro-opioid agonist piritramide in the two days post surgery: 54 mg
